What all share (format): cell-based, human
Assay [1] relates to p-MED1 (p-T1457 MED1). Nature of the assay: Immunoblot of p-MED1 in AR negative RWPE and DU145 cells. The settings on record: RWPE and DU145, highest tested concentration. As for the experimental part: (§1) Cell lysates were prepared with RIPA buffer (Boston Bioproducts, BP-115DG)-10 mM Tris-HCl pH 7.5, 1 mM EDTA, 400 mM NaCl, 0.5% NP-40 and 1 mM DTT, supplemented with protease inhibitor cocktail (Pierce, A32965) and phosphatase inhibitor (Thermo, 1861280). For immunoblotting 200 μg total protein extract was boiled in sample buffer and 15-25 μg aliquots were separated by SDS-PAGE and transferred onto Polyvinylidene Difluoride membrane (GE Healthcare, IPVH00010). The membrane was incubated for one hour in blocking buffer [Tris-buffered saline, 0.1% Tween (TBS-T), 5% nonfat dry milk followed by overnight incubation on a rocker at 4° C. with the primary antibody. Following a wash with TBS-T, the blot was incubated with horseradish peroxidase-conjugated secondary antibody for 2 hrs on a rocker at room temperature. The blots were washed again and signals were visualized using enhanced chemiluminescence system as per manufacturer's protocol (GE Healthcare) or Kwik Quant Imager (Kindle Biosciences). […]
Background: Immunoblotting shows a protein as a band on a membrane.

In assay [2] the test system is AR p-S515. The assay can be described thus: Immunoblot of AR p-S515. The settings on record: LNCaP, 200 nM, 12 h. On the procedure: as §1
Assay [3] has as its system p-MED1 (p-T1457 MED1). Nature of the assay: Immunoblot of p-MED1 in AR-positive PCa cell lines (VCaP, LNCaP, 22RV1). On the procedure:
Cell lysates were prepared with RIPA buffer (Boston Bioproducts, BP-115DG)-10 mM Tris-HCl pH 7.5, 1 mM EDTA, 400 mM NaCl, 0.5% NP-40 and 1 mM DTT, supplemented with protease inhibitor cocktail (Pierce, A32965) and phosphatase inhibitor (Thermo, 1861280). For immunoblotting 200 μg total protein extract was boiled in sample buffer and 15-25 μg aliquots were separated by SDS-PAGE and transferred onto Polyvinylidene Difluoride membrane (GE Healthcare, IPVH00010). The membrane was incubated for one hour in blocking buffer [Tris-buffered saline, 0.1% Tween (TBS-T), 5% nonfat dry milk followed by overnight incubation on a rocker at 4° C. with the primary antibody. Following a wash with TBS-T, the blot was incubated with horseradish peroxidase-conjugated secondary antibody for 2 hrs on a rocker at room temperature. The blots were washed again and signals were visualized using enhanced chemiluminescence system as per manufacturer's protocol (GE Healthcare) or Kwik Quant Imager (Kindle Biosciences). Primary antibodies used in the immunoblotting (IB), immunoprecipitation (IP), and Chromatin Immunoprecipitation sequencing (ChIP-seq) assays are as follows: AR_IP, IB, ChIP-Seq (Millipore, 06-680); pS81-AR_IB (Millipore, 07-1375-EMD); RNA Pol II_IP, IB (Abcam, ab5408); ERG_IB (Abcam, a92513); PSA_IB (Dako, A0562); H3-acetyl K27_IP, IB, ChIP Seq (Abcam, ab32104) cPARP_IB (Cell Signaling Technology, 9541s); Cleaved caspase-3_IB (Cell Signaling Technology, 9664t); CDK7_IP, IB (Cell Signaling Technology, 2916s); CDK9_IP, IB (Cell Signaling Technology, 2316s); CDK12_IB (Cell Signaling Technology, 11973S); CDK13_IB (Sigma Cat. #ABE1860); Cyclin H_IB (Cell Signaling Technology, 2927T); HA_IP, IB (Cell Signaling Technology, 2367s); ERK1/2_IP, IB (Cell Signaling Technology, 9107s); phospho-ERK1/2_IB (Cell Signaling Technology, 9101s); phospho-Threonine_IB (Cell Signaling Technology, 9381s); PP2A alpha_IB (Abcam, ab32104); phospho-MED1_IB (Abcam, ab60950); Anti-GST_IB (Cell Signaling Technology, 2624); Anti-AKT_IB (Cell Signaling Technology, 9272); Anti-phosphoAKT_IB(Cell Signaling Technology, 4060); Anti-phospho-AR (Ser-515) _IB (Abeam, ab128250); Anti-RNA Pol 'LIB (Abeam, ab5408); Anti-phospho-pol II (Ser-5)_IB (Abeam, ab ab5095); Anti-phospho-CDK7 (Tlu-170) _IB (Millipore, ABS567); MED1_IP, IB, ChIP Seq (Bethyl, abA300-793A), Ki67_IHC (Cell Signaling Technology, 9661), and GAPDH (14C10), IB (Cell Signaling Technology, 3683s) for loading control.

For assay [4], the system named is chromatin-bound p-MED1/MED1. The assay can be described thus: Chromatin-bound protein extraction and immunoblot. The settings on record: DHT-stimulated LNCaP, 6 h; THZ1 100 nM, enzalutamide 5 μM. On the procedure: Chromatin bound protein extraction was performed following the protocol described in Pawar et al. Briefly, 10 million cells were collected and washed with DPBS, and were resuspended in 250 μl Buffer A (10 mM HEPES pH 7.9, 10 mM KCl, 1.5 mM MgCl2, 0.34 M sucrose, 10% glycerol, 1 mM DTT) supplemented with 0.1% TritonX-100 and incubated on ice for 10 min. The nuclei pellet was collected by centrifugation at 1300×g for 5 min at 4° C., washed in Buffer A and centrifuged again with the same settings. The nuclear pellet was then resuspended in Buffer B (3 mM EDTA, 0.2 mM EGTA, 1 mM DTT) and incubated on ice for 30 min. The chromatin pellet was collected by centrifugation at 1700×g for 5 min at 4° C., washed in Buffer B and centrifuged again with the same settings. The proteins were incubated on ice in Buffer B with 150 mM NaCl for 20 min and centrifuged at 1700×g for 5 min to remove proteins soluble in 150 mM salt concentrations. The pellet was then incubated in Buffer B with 300 mM NaCl on ice for 20 min and centrifuged again at 1700×g to obtain the final chromatin pellet. The chromatin pellet was dissolved in sample buffer, sonicated for 15 seconds, and boiled at 95° C. for 10 min. Samples were analyzed using Immunoblot analysis as described previously. All buffers were supplemented with Pierce protease inhibitor and Halt protease & phosphatase inhibitors.

The test system of assay [5] is AR-negative PC3 and DU145 cells. Nature of the assay: Annexin V-FITC apoptosis analysis. As for the experimental part:
(§2) Apoptosis induction was quantified using the Annexin-V and FITC Apoptosis Kit, as per manufacturer's instructions. Briefly LNCaP, VCaP, DU145 and PC3 cells were plated at a density of 5×10^5 cells per well in a 6-well culture plate. After subsequent treatments, the cells were harvested following incubation with a staining solution containing 10 μL propidium iodide and 5 μL Annexin for 10 min and analyzed by flow cytometry (BD FACS Aria II, BD Biosciences, San Jose).

Assay [6] has as its system AR-positive LNCaP and VCaP cells. The assay can be described thus: Annexin V-FITC apoptosis analysis. On the procedure: as §2

The results in this text go back to patent US12678438B2, “Treatment of cancer with CDK inhibitors” (THE TRUSTEES OF THE UNIVERSITY OF PENNSYLVANIA, priority 2019, dated 2026).

For the compound `CN(C)C/C=C/C(=O)Nc1ccc(C(=O)Nc2cccc(Nc3ncc(Cl)c(-c4c[nH]c5ccccc45)n3)c2)cc1` [THZ1], the “p-MED1 or pS5-PolII levels” value in assay [1] is listed as “no such decrease in p-MED1 or pS5-PolII levels”. Also, the “AR p-S515 levels” value in assay [2] is recorded as “did not reduce AR p-S515 levels”. Also, the “phosphorylation at Ser5 of RNA Pol II” value in assay [3] (VCaP and LNCaP, dose and time course) is on record as “reduced phosphorylation at Ser5 of RNA Poll”. Moreover, the “p-MED1 levels, dose and time course” value in assay [3] (VCaP and LNCaP, standard growth conditions) was “dose- and time-dependent decrease in p-MED1 levels”. Also, in assay [3] (VCaP, LNCaP, 22RV1, standard culture conditions, 24 h (THZ1 and LDC also with DHT stimulation)), the p-MED1 levels entry was “reduced p-MED1 levels”. In addition, in assay [4], the “chromatin-bound levels of p-MED1/MED1” value was “complete loss in the chromatin-bound levels of p-MED1/MED1”. Also, the apoptosis result in assay [5] is recorded as “not observed”; in assay [6] it was “induced robust apoptosis”.
